In US4401604A, “Process for preparing thiosulfenamide derivatives of N-phosphonomethylglycine triesters” (Monsanto Company, priority 1981, dated 1983):

Assays:
Type in all cases: in vivo
Barnyardgrass [1] = experiment: Post-emergence herbicidal activity, greenhouse
Outline: (§1)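 Greenhouse pans of plants two to three weeks old were sprayed with compound solution or suspension containing about 0.4% emulsifier, at the listed application rates. Injury versus unsprayed controls was scored at about two and four weeks after treatment.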

Canada Thistle [2] = experiment: Post-emergence herbicidal activity, greenhouse; conditions: Table I, 4 WAT
Outline: as §1

Cocklebur [3] = experiment: Post-emergence herbicidal activity, greenhouse
Outline: as §1

Crabgrass = experiment: Post-emergence herbicidal activity, greenhouse; conditions: Table II
Outline: as §1

Downy Brome [4] = experiment: Post-emergence herbicidal activity, greenhouse
Outline: as §1

Hemp Sesbania = experiment: Post-emergence herbicidal activity, greenhouse; conditions: Table II
Outline: as §1

Johnsongrass [5] = experiment: Post-emergence herbicidal activity, greenhouse; conditions: Table I, 4 WAT
Outline: as §1

Lambsquarters [6] = experiment: Post-emergence herbicidal activity, greenhouse
Outline: as §1

Morningglory [7] = experiment: Post-emergence herbicidal activity, greenhouse
Outline: as §1

Panicum Spp = experiment: Post-emergence herbicidal activity, greenhouse; conditions: Table II
Outline: as §1

Quackgrass [8] = experiment: Post-emergence herbicidal activity, greenhouse; conditions: Table I, 4 WAT
Outline: as §1

Rice = experiment: Post-emergence herbicidal activity, greenhouse; conditions: Table II
Outline: as §1

Smartweed [9] = experiment: Post-emergence herbicidal activity, greenhouse
Outline: as §1

Sorghum = experiment: Post-emergence herbicidal activity, greenhouse; conditions: Table II
Outline: as §1

Soybean = experiment: Post-emergence herbicidal activity, greenhouse; conditions: Table II
Outline: as §1

Sugar Beet = experiment: Post-emergence herbicidal activity, greenhouse; conditions: Table II
Outline: as §1

Velvetleaf [10] = experiment: Post-emergence herbicidal activity, greenhouse
Outline: as §1

Wheat = experiment: Post-emergence herbicidal activity, greenhouse; conditions: Table II
Outline: as §1

Wild Buckwheat = experiment: Post-emergence herbicidal activity, greenhouse; conditions: Table II
Outline: as §1

Yellow Nutsedge [11] = experiment: Post-emergence herbicidal activity, greenhouse; conditions: Table I, 4 WAT
Outline: as §1

Barnyardgrass [12] = experiment: Pre-emergent herbicidal activity; conditions: Table III; 11.2 kg/h; 2 WAT
Outline: (§2)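 Seeds or propagules covered with soil admixed with a known amount of compound, pans bottom-watered on wet sand bench. After approximately two weeks, emerged plants counted against untreated control; index reflects average percent control per species.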

Canada Thistle [13] = experiment: Pre-emergent herbicidal activity; conditions: Table III; 11.2 kg/h; 2 WAT
Outline: as §2

Cocklebur [14] = experiment: Pre-emergent herbicidal activity; conditions: Table III; 11.2 kg/h; 2 WAT
Outline: as §2

Downy Brome [15] = experiment: Pre-emergent herbicidal activity; conditions: Table III; 11.2 kg/h; 2 WAT
Outline: as §2

Johnsongrass [16] = experiment: Pre-emergent herbicidal activity; conditions: Table III; 11.2 kg/h; 2 WAT
Outline: as §2

Lambsquarters [17] = experiment: Pre-emergent herbicidal activity; conditions: Table III; 11.2 kg/h; 2 WAT
Outline: as §2

Morningglory [18] = experiment: Pre-emergent herbicidal activity; conditions: Table III; 11.2 kg/h; 2 WAT
Outline: as §2

Quackgrass [19] = experiment: Pre-emergent herbicidal activity; conditions: Table III; 11.2 kg/h; 2 WAT
Outline: as §2

Smartweed [20] = experiment: Pre-emergent herbicidal activity; conditions: Table III; 11.2 kg/h; 2 WAT
Outline: as §2

Velvetleaf [21] = experiment: Pre-emergent herbicidal activity; conditions: Table III; 11.2 kg/h; 2 WAT
Outline: as §2

Yellow Nutsedge [22] = experiment: Pre-emergent herbicidal activity; conditions: Table III; 11.2 kg/h; 2 WAT
Outline: as §2

## O=C(CN(CP(=O)(Oc1ccccc1)Oc1ccccc1)SSCCc1ccccc1)OCc1ccccc1 [IV, Glycine, N-[(diphenoxyphosphinyl)methyl]-N-[(2-phenylethyl)dithio]-, phenylmethyl ester]
Barnyardgrass [1]; Table I, 5.6 kg/h, 4 WAT
  post-emergence herbicidal activity index: 2 (50-74% control)
Barnyardgrass [1]; Table I, 11.2 kg/h, 4 WAT
  post-emergence herbicidal activity index: 2 (50-74% control)
Barnyardgrass [1]; Table II, 0.28 kg/h, 2 WAT
  post-emergence herbicidal activity index: 0 (0- 24% control)
Barnyardgrass [1]; Table II, 1.12 kg/h, 4 WAT
  post-emergence herbicidal activity index: 0 (0- 24% control)
Barnyardgrass [1]; Table II, 5.6 kg/h, 4 WAT
  post-emergence herbicidal activity index: 4 (100% control)
Canada Thistle [2]; 5.6 kg/h
  post-emergence herbicidal activity index: 0 (0- 24% control)
Canada Thistle [2]; 11.2 kg/h
  post-emergence herbicidal activity index: 1 (25-49% control)
Cocklebur [3]; Table I, 5.6 kg/h, 4 WAT
  post-emergence herbicidal activity index: 1 (25-49% control)
Cocklebur [3]; Table I, 11.2 kg/h, 4 WAT
  post-emergence herbicidal activity index: 3 (75-99% control)
Cocklebur [3]; Table II, 0.28 kg/h, 2 WAT
  post-emergence herbicidal activity index: 0 (0- 24% control)
Cocklebur [3]; Table II, 1.12 kg/h, 4 WAT
  post-emergence herbicidal activity index: 1 (25-49% control)
Cocklebur [3]; Table II, 5.6 kg/h, 4 WAT
  post-emergence herbicidal activity index: 3 (75-99% control)
Crabgrass; 0.28 kg/h, 2 WAT
  post-emergence herbicidal activity index: 0 (0- 24% control)
Crabgrass; 1.12 kg/h, 4 WAT
  post-emergence herbicidal activity index: 2 (50-74% control)
Crabgrass; 5.6 kg/h, 4 WAT
  post-emergence herbicidal activity index: 4 (100% control)
Downy Brome [4]; Table I, 5.6 kg/h, 4 WAT
  post-emergence herbicidal activity index: 0 (0- 24% control)
Downy Brome [4]; Table I, 11.2 kg/h, 4 WAT
  post-emergence herbicidal activity index: 1 (25-49% control)
Downy Brome [4]; Table II, 0.28 kg/h, 2 WAT
  post-emergence herbicidal activity index: 0 (0- 24% control)
Downy Brome [4]; Table II, 1.12 kg/h, 4 WAT
  post-emergence herbicidal activity index: 0 (0- 24% control)
Downy Brome [4]; Table II, 5.6 kg/h, 4 WAT
  post-emergence herbicidal activity index: 3 (75-99% control)
Hemp Sesbania; 0.28 kg/h, 2 WAT
  post-emergence herbicidal activity index: 0 (0- 24% control)
Hemp Sesbania; 1.12 kg/h, 4 WAT
  post-emergence herbicidal activity index: 0 (0- 24% control)
Hemp Sesbania; 5.6 kg/h, 4 WAT
  post-emergence herbicidal activity index: 1 (25-49% control)
Johnsongrass [5]; 5.6 kg/h
  post-emergence herbicidal activity index: 2 (50-74% control)
Johnsongrass [5]; 11.2 kg/h
  post-emergence herbicidal activity index: 0 (0- 24% control)
Lambsquarters [6]; Table I, 5.6 kg/h, 4 WAT
  post-emergence herbicidal activity index: 3 (75-99% control)
Lambsquarters [6]; Table I, 11.2 kg/h, 4 WAT
  post-emergence herbicidal activity index: 3 (75-99% control)
Lambsquarters [6]; Table II, 0.28 kg/h, 2 WAT
  post-emergence herbicidal activity index: 0 (0- 24% control)
Lambsquarters [6]; Table II, 1.12 kg/h, 4 WAT
  post-emergence herbicidal activity index: 3 (75-99% control)
Lambsquarters [6]; Table II, 5.6 kg/h, 4 WAT
  post-emergence herbicidal activity index: 3 (75-99% control)
Morningglory [7]; Table I, 5.6 kg/h, 4 WAT
  post-emergence herbicidal activity index: 2 (50-74% control)
Morningglory [7]; Table I, 11.2 kg/h, 4 WAT
  post-emergence herbicidal activity index: 2 (50-74% control)
Morningglory [7]; Table II, 0.28 kg/h, 2 WAT
  post-emergence herbicidal activity index: 0 (0- 24% control)
Morningglory [7]; Table II, 1.12 kg/h, 4 WAT
  post-emergence herbicidal activity index: 0 (0- 24% control)
Morningglory [7]; Table II, 5.6 kg/h, 4 WAT
  post-emergence herbicidal activity index: 2 (50-74% control)
Panicum Spp; 0.28 kg/h, 2 WAT
  post-emergence herbicidal activity index: 0 (0- 24% control)
Panicum Spp; 1.12 kg/h, 4 WAT
  post-emergence herbicidal activity index: 0 (0- 24% control)
Panicum Spp; 5.6 kg/h, 4 WAT
  post-emergence herbicidal activity index: 3 (75-99% control)
Quackgrass [8]; 5.6 kg/h
  post-emergence herbicidal activity index: 2 (50-74% control)
Quackgrass [8]; 11.2 kg/h
  post-emergence herbicidal activity index: 1 (25-49% control)
Rice; 0.28 kg/h, 2 WAT
  post-emergence herbicidal activity index: 0 (0- 24% control)
Rice; 1.12 kg/h, 4 WAT
  post-emergence herbicidal activity index: 0 (0- 24% control)
Rice; 5.6 kg/h, 4 WAT
  post-emergence herbicidal activity index: 1 (25-49% control)
Smartweed [9]; Table I, 5.6 kg/h, 4 WAT
  post-emergence herbicidal activity index: 1 (25-49% control)
Smartweed [9]; Table I, 11.2 kg/h, 4 WAT
  post-emergence herbicidal activity index: 2 (50-74% control)
Smartweed [9]; Table II, 0.28 kg/h, 2 WAT
  post-emergence herbicidal activity index: 0 (0- 24% control)
Smartweed [9]; Table II, 1.12 kg/h, 4 WAT
  post-emergence herbicidal activity index: 1 (25-49% control)
Smartweed [9]; Table II, 5.6 kg/h, 4 WAT
  post-emergence herbicidal activity index: 2 (50-74% control)
Sorghum; 0.28 kg/h, 2 WAT
  post-emergence herbicidal activity index: 0 (0- 24% control)
Sorghum; 1.12 kg/h, 4 WAT
  post-emergence herbicidal activity index: 0 (0- 24% control)
Sorghum; 5.6 kg/h, 4 WAT
  post-emergence herbicidal activity index: 2 (50-74% control)
Soybean; 0.28 kg/h, 2 WAT
  post-emergence herbicidal activity index: 0 (0- 24% control)
Soybean; 1.12 kg/h, 4 WAT
  post-emergence herbicidal activity index: 0 (0- 24% control)
Soybean; 5.6 kg/h, 4 WAT
  post-emergence herbicidal activity index: 2 (50-74% control)
Sugar Beet; 0.28 kg/h, 2 WAT
  post-emergence herbicidal activity index: 0 (0- 24% control)
Sugar Beet; 1.12 kg/h, 4 WAT
  post-emergence herbicidal activity index: 3 (75-99% control)
Sugar Beet; 5.6 kg/h, 4 WAT
  post-emergence herbicidal activity index: 4 (100% control)
Velvetleaf [10]; Table I, 5.6 kg/h, 4 WAT
  post-emergence herbicidal activity index: 0 (0- 24% control)
Velvetleaf [10]; Table I, 11.2 kg/h, 4 WAT
  post-emergence herbicidal activity index: 1 (25-49% control)
Velvetleaf [10]; Table II, 0.28 kg/h, 2 WAT
  post-emergence herbicidal activity index: 0 (0- 24% control)
Velvetleaf [10]; Table II, 1.12 kg/h, 4 WAT
  post-emergence herbicidal activity index: 0 (0- 24% control)
Velvetleaf [10]; Table II, 5.6 kg/h, 4 WAT
  post-emergence herbicidal activity index: 2 (50-74% control)
Wheat; 0.28 kg/h, 2 WAT
  post-emergence herbicidal activity index: 0 (0- 24% control)
Wheat; 1.12 kg/h, 4 WAT
  post-emergence herbicidal activity index: 1 (25-49% control)
Wheat; 5.6 kg/h, 4 WAT
  post-emergence herbicidal activity index: 3 (75-99% control)
Wild Buckwheat; 0.28 kg/h, 2 WAT
  post-emergence herbicidal activity index: 0 (0- 24% control)
Wild Buckwheat; 1.12 kg/h, 4 WAT
  post-emergence herbicidal activity index: 0 (0- 24% control)
Wild Buckwheat; 5.6 kg/h, 4 WAT
  post-emergence herbicidal activity index: 2 (50-74% control)
Yellow Nutsedge [11]; 5.6 kg/h
  post-emergence herbicidal activity index: 0 (0- 24% control)
Yellow Nutsedge [11]; 11.2 kg/h
  post-emergence herbicidal activity index: 1 (25-49% control)
Barnyardgrass [12]
  pre-emergent herbicidal activity index: 0 (0-24% control)
Canada Thistle [13]
  pre-emergent herbicidal activity index: 3 (75-100% control)
Cocklebur [14]
  pre-emergent herbicidal activity index: 0 (0-24% control)
Downy Brome [15]
  pre-emergent herbicidal activity index: 0 (0-24% control)
Johnsongrass [16]
  pre-emergent herbicidal activity index: 0 (0-24% control)
Lambsquarters [17]
  pre-emergent herbicidal activity index: 0 (0-24% control)
Morningglory [18]
  pre-emergent herbicidal activity index: 0 (0-24% control)
Quackgrass [19]
  pre-emergent herbicidal activity index: 1 (25-49% control)
Smartweed [20]
  pre-emergent herbicidal activity index: 0 (0-24% control)
Velvetleaf [21]
  pre-emergent herbicidal activity index: 0 (0-24% control)
Yellow Nutsedge [22]
  pre-emergent herbicidal activity index: 0 (0-24% control)
